This note sets out measurements from patent US9743666B2, “Herbicidal composition comprising flazasulfuron and an inhibitor of protoporphyrinogen oxidase” (ISHIHARA SANGYO KAISHA, LTD., priority 2011, dated 2017).

Read-outs that look alike come from different tables or passages of the source.

Assay [1] deals with ivy-leaved morningglory (Ipomoea hederacea Jacq.). Kind of assay: Test Example 19: pot test, soil treatment of ivy-leaved morningglory. Format: in vivo. As to conditions: 14th day after treatment, read-out: Growth inhibition rate (%) of ivy-leaved morningglory, Measured value.
Assay [2] has as its system corn (Zea mays L.). Briefly: Test Example 18: pot test, soil treatment of corn. Type of assay: in vivo. As to conditions: 14th day after treatment, read-out: Growth inhibition rate (%) of corn, Measured value.
Assay [3] deals with persian speedwell (Veronica persica Poir.). Kind of assay: Test Example 12: pot test, foliar treatment of persian speedwell, 4.0 to 4.3 leaf-stage. Format: in vivo. The settings on record: read-out: Growth inhibition rate (%) of persian speedwell, Measured value.
Assay [4] has as its system bermudagrass (Cynodon dactylon (L.) Pers.). Briefly: Test Example 10: pot test, foliar treatment of bermudagrass, 2.2 to 2.5 leaf-stage. Format: in vivo. The settings on record: read-out: Growth inhibition rate (%) of bermudagrass, Measured value.
In assay [5] the test system is common lambsquarters (Chenopodium album L.). Briefly: Test Example 4: pot test, foliar treatment of common lambsquarters. The settings on record: read-out: Growth inhibition rate (%) of lambsquarters, Measured value.
In assay [6] the test system is wild oat (Avena fatua L.). Kind of assay: Test Example 16: pot test, soil treatment of wild oat, 28th day. Type of assay: in vivo.
Assay [7] concerns black nightshade (Solanum nigrum L.). Kind of assay: Test Example 2: pot test, foliar treatment of black nightshade. Type of assay: in vivo.
The test system of assay [8] is sticky chickweed (Cerastium glomeratum Thuill.). Briefly: Test Example 3: pot test, foliar treatment of sticky chickweed. Format: in vivo. The settings on record: read-out: Growth inhibition rate (%) of sticky chickweed, Measured value.
In assay [9] the test system is sunn-hemp (Crotalaria juncea L.). Kind of assay: Test Example 15: pot test, soil treatment of sunn-hemp. Format: in vivo. As to conditions: 28th day after treatment.
Assay [10] has as its system velvetleaf (Abutilon theophrasti Medic.). Briefly: Test Example 8: pot test, soil treatment of velvetleaf. Type of assay: in vivo. As to conditions: 28th day after treatment, read-out: Growth inhibition rate (%) of velvetleaf, Measured value.
For assay [11], the system named is black nightshade (Solanum nigrum L.). Briefly: Test Example 9: pot test, soil treatment of black nightshade. Format: in vivo. As to conditions: 28th day after treatment, read-out: Growth inhibition rate (%) of black nightshade, Measured value.
In assay [12] the test system is bermudagrass (Cynodon dactylon (L.) Pers.). Kind of assay: Test Example 11: pot test, foliar treatment of bermudagrass, 3.8 to 4.3 leaf-stage. As to conditions: read-out: Growth inhibition rate (%) of bermudagrass, Measured value. Format: in vivo.
For assay [13], the system named is rostrate sesbania (Sesbania rostrata Bremek. & Oberm.). Kind of assay: Test Example 6: pot test, soil treatment of rostrate sesbania, 28th day. Type of assay: in vivo. The settings on record: 28th day after treatment.
Assay [14] relates to wild oat (Avena fatua L.). Kind of assay: Test Example 17: pot test, soil treatment of wild oat, 14th day. Format: in vivo. The settings on record: 14th day after treatment, read-out: Growth inhibition rate (%) of wild oat, Measured value.
Assay [15] relates to sunn-hemp (Crotalaria juncea L.). Briefly: Test Example 7: pot test, soil treatment of sunn-hemp. Format: in vivo.
Assay [16] relates to japanese millet (Echinochloa esculenta (A. Braun) H. Scholz.). Kind of assay: Test Example 13: pot test, soil treatment of japanese millet. Format: in vivo.
Assay [17] has as its system persian speedwell (Veronica persica Poir.). Briefly: Test Example 1: pot test, foliar treatment of persian speedwell. Type of assay: in vivo. The settings on record: read-out: Growth inhibition rate (%) of persian speedwell, Measured value.
For assay [18], the system named is rostrate sesbania (Sesbania rostrata Bremek. & Oberm.). Briefly: Test Example 14: pot test, soil treatment of rostrate sesbania, 14th day. Format: in vivo. The settings on record: 14th day after treatment.
Assay [19] deals with wild oat (Avena fatua L.). Briefly: Test Example 5: pot test, soil treatment of wild oat, 13th day. As to conditions: soil treatment one day after sowing, 13th day after treatment; for inhibition at 25 g/ha / inhibition at 50 g/ha: Avena fatua, 24 h, read-out: Growth inhibition rate (%) of wild oat, Measured value. Format: in vivo.
Assay [20] relates to shattercane (Sorghum bicolor (L.) Moench). Briefly: Test Example 20: pot test, soil treatment of shattercane. Type of assay: in vivo. As to conditions: 14th day after treatment, read-out: Growth inhibition rate (%) of shattercane, Measured value.
The mark [21] stands for this setting: dose 50 g/ha, 2.2 to 2.5 leaf-stage, 28th day after treatment.
The mark [22] stands for this setting: Crotalaria juncea, soil, read-out: Growth inhibition rate (%) of sunn-hemp, Measured value.

In general, inhibition refers to the relative decrease from the control value, in per cent. As for `C=CCOC(=O)C(C)(C)OC(=O)c1cc(-n2c(=O)cc(C(F)(F)F)n(C)c2=O)ccc1Cl` [Butafenacil, butafenacil], the inhibition at 10 g/ha in [1] (dose 10 g/ha) came to 0%. Moreover, the inhibition at 100 g/ha in [2] (dose 100 g/ha) stood at 20%.
For `CCOC(=O)C(Cl)Cc1cc(-n2nc(C)n(C(F)F)c2=O)c(F)cc1Cl` (stereo not drawn) [Carfentrazone-ethyl, carfentrazone-ethyl], the inhibition at 25 g/ha in assay [3] came to 65%. Besides, in [4], the inhibition at 20 g/ha was determined as 0% and the inhibition at 50 g/ha turned out to be 0%. Besides, in assay [5], the inhibition at 27.4 g/ha turned out to be 92%.
As for `COc1cc(OC)nc(NC(=O)NS(=O)(=O)c2ncccc2C(F)(F)F)n1` [Flazasulfuron, 1-(4,6-dimethoxypyrimidin-2-yl)-3-(3-trifluoromethyl-2-pyridylsulfonyl)urea], the inhibition at 12.5 g/ha in [6] (Avena fatua, dose 12.5 g/ha, soil treatment, 28th day after treatment, read-out: Growth inhibition rate (%) of wild oat, Measured value) was determined as 20%; in [12] (dose 12.5 g/ha, 3.8 to 4.3 leaf-stage, 28th day after treatment), 15%; in assay [13] (Sesbania, dose 12.5 g/ha, read-out: Growth inhibition rate (%) of rostrate sesbania, Measured value), 25%; in [2] (dose 12.5 g/ha) it was 70%; in assay [20] (dose 12.5 g/ha), 0%. In addition, the inhibition at 25 g/ha in assay [6] (Avena fatua, dose 25 g/ha, soil treatment, 28th day after treatment, read-out: Growth inhibition rate (%) of wild oat, Measured value) stood at 75%; in [3] (dose 25 g/ha, 4.0 to 4.3 leaf-stage, 28th day after treatment) it was 0%; in assay [9] (Crotalaria juncea, dose 25 g/ha, read-out: Growth inhibition rate (%) of sunn-hemp, Measured value), 0%; in assay [14] (dose 25 g/ha), 30%; in assay [17] (dose 25 g/ha, 7 to 8 leaf-stage, 21st day after treatment) it was 10%; in assay [19], 40%. Moreover, the inhibition at 50 g/ha in assay [7] (Solanum nigrum, dose 50 g/ha, 3.2 to 3.5 leaf-stage, 21st day after treatment, read-out: Growth inhibition rate (%) of black nightshade, Measured value) amounted to 74%; in [10] (dose 50 g/ha), 88%; in assay [1] (dose 50 g/ha), 60%; in [11] (dose 50 g/ha), 85%; in [15] (Crotalaria juncea, dose 50 g/ha, soil treatment, 28th day after treatment, read-out: Growth inhibition rate (%) of sunn-hemp, Measured value), 55%; in assay [16] (Echinochloa esculenta, dose 50 g/ha, soil treatment, 14th day after treatment, read-out: Growth inhibition rate (%) of japanese millet, Measured value) it was 80%. Also, the inhibition at 50 g/ha in assay [18] (Sesbania, dose 50 g/ha, read-out: Growth inhibition rate (%) of rostrate sesbania, Measured value) amounted to 50%; in assay [19] (dose 50 g/ha) it was 70%; in [4] (setting [21]) it was 75%. Moreover, the “dose required to completely suppress growth of black nightshade” value in assay [7] (flazasulfuron alone) is listed as ≥ 50 g/ha. For the same molecule, the inhibition at 6.3 g/ha in [8] (dose 6.3 g/ha, 3.3 to 4.0 leaf-stage, 21st day after treatment) was found to be 92%. Moreover, the inhibition at 100 g/ha stood at 88% in assay [10] (dose 100 g/ha) and 75% in assay [4] (dose 100 g/ha, 2.2 to 2.5 leaf-stage, 28th day after treatment). For the same molecule, in assay [5], the inhibition at 1.6 g/ha is 3%.
Consider `CCOC(=O)COc1cc(-n2ncc(C(F)(F)F)c(C)c2=O)c(F)cc1Cl` [Flufenpyr-ethyl, flufenpyr-ethyl], for which the “Growth inhibition rate (%) of sunn-hemp, Measured value” in [9] (dose 50 g/ha) is given as 0%. Further, the “Growth inhibition rate (%) of rostrate sesbania, Measured value” in assay [18] (dose 5 g/ha) came out at 0%.
Take `C#CCN1C(=O)COc2cc(F)c(N3C(=O)C4=C(CCCC4)C3=O)cc21` [Flumioxazin, flumioxazin]: the inhibition at 250 g/ha in [6] (Avena fatua, dose 250 g/ha, soil treatment, 28th day after treatment, read-out: Growth inhibition rate (%) of wild oat, Measured value) came out at 90%; in [13] (Sesbania, dose 250 g/ha, read-out: Growth inhibition rate (%) of rostrate sesbania, Measured value) it was 70%. The inhibition at 100 g/ha in [9] (Crotalaria juncea, dose 100 g/ha, read-out: Growth inhibition rate (%) of sunn-hemp, Measured value) came to 0%. The inhibition at 2.5 g/ha in assay [11] (dose 2.5 g/ha) stood at 0%. The inhibition at 500 g/ha in [14] (dose 500 g/ha) was 75%. Moreover, the inhibition at 200 g/ha in assay [18] (Sesbania, dose 200 g/ha, read-out: Growth inhibition rate (%) of rostrate sesbania, Measured value) was 75%. Besides, the inhibition at 5 g/ha in assay [4] (dose 5 g/ha, 2.2 to 2.5 leaf-stage, 28th day after treatment) was determined as 20%.
Regarding `COC(=O)CSc1cc(/N=c2\sc(=O)n3n2CCCC3)c(F)cc1Cl` [Fluthiacet-methyl, fluthiacet-methyl], in assay [9] (Crotalaria juncea, dose 50 g/ha, read-out: Growth inhibition rate (%) of sunn-hemp, Measured value), the inhibition at 50 g/ha was 0%. Moreover, the inhibition at 5 g/ha in assay [18] (Sesbania, dose 5 g/ha, read-out: Growth inhibition rate (%) of rostrate sesbania, Measured value) amounted to 0%.
`CC(C)=C1OC(=O)N(c2cc(OC3CCCC3)c(Cl)cc2F)C1=O` [Pentoxazone, pentoxazone]: the inhibition at 250 g/ha in assay [6] (Avena fatua, soil, read-out: Growth inhibition rate (%) of wild oat, Measured value) was 0%. For the same molecule, the inhibition at 100 g/ha in assay [16] (Echinochloa esculenta, soil, read-out: Growth inhibition rate (%) of japanese millet, Measured value) was 0%.
Regarding `C#CCN(C)c1c(C#N)cnn1-c1nn2c(c1Cl)CCCC2` [Pyraclonil, pyraclonil], in [6] (dose 250 g/ha, soil treatment, 28th day after treatment), the “Growth inhibition rate (%) of wild oat, Measured value” is on record as 40%. Moreover, in assay [16] (dose 100 g/ha, soil treatment, 14th day after treatment), the “Growth inhibition rate (%) of japanese millet, Measured value” turned out to be 30%.
For `CCOC(=O)COc1cc(-c2nn(C)c(OC(F)F)c2Cl)c(F)cc1Cl` [Pyraflufen-ethyl, pyraflufen-ethyl], the inhibition at 2.5 g/ha in [7] (Solanum nigrum, read-out: Growth inhibition rate (%) of black nightshade, Measured value) is 88%. For the same molecule, the inhibition at 80 g/ha in [3] turned out to be 80%. Moreover, the inhibition at 10 g/ha in assay [8] was 58%; in [15] (setting [22]), 20%; in assay [17], 43%. For the same molecule, the inhibition at 40 g/ha in assay [12] came to 0%. The inhibition at 50 g/ha in assay [15] (setting [22]) came out at 45%.
As for `CC(C)N(C)S(=O)(=O)NC(=O)c1cc(-n2c(=O)cc(C(F)(F)F)n(C)c2=O)c(F)cc1Cl` [Saflufenacil, saflufenacil], the inhibition at 50 g/ha in assay [6] (Avena fatua, dose 50 g/ha, soil treatment, 28th day after treatment, read-out: Growth inhibition rate (%) of wild oat, Measured value) was determined as 0%; in [19] (dose 50 g/ha), 5%. In addition, the inhibition at 5 g/ha in assay [10] (dose 5 g/ha) worked out at 0%. In addition, the inhibition at 10 g/ha in assay [10] (dose 10 g/ha) was found to be 65%. Besides, in assay [19], the inhibition at 25 g/ha was 15%. For the same molecule, the inhibition at 100 g/ha in assay [20] (dose 100 g/ha) is 20%.
`Cc1nn(-c2cc(NS(C)(=O)=O)c(Cl)cc2Cl)c(=O)n1C(F)F` [Sulfentrazone, sulfentrazone]: the inhibition at 500 g/ha in assay [9] (Crotalaria juncea, dose 500 g/ha, read-out: Growth inhibition rate (%) of sunn-hemp, Measured value) was found to be 30%. In assay [10] (dose 25 g/ha), the inhibition at 25 g/ha came to 20%. In addition, in assay [4] (setting [21]), the inhibition at 50 g/ha came out at 30%.
With oxadiargyl, the “Growth inhibition rate (%) of rostrate sesbania, Measured value” in assay [13] (dose 400 g/ha) stood at 20%. Moreover, the “Growth inhibition rate (%) of sunn-hemp, Measured value” in assay [15] (dose 400 g/ha, soil treatment, 28th day after treatment) is recorded as 40%. The entries for the “Growth inhibition rate (%) of wild oat, Measured value” in [19] (dose 50 g/ha) and in assay [19] (dose 800 g/ha) were 5% and 20%, respectively.
